Patent US20120142771A1, “BIPHENYLACETAMIDE DERIVATIVE” (Dainippon Sumitomo Pharma Co., Ltd., priority 2008, published 2012)
Read-outs that look alike come from different tables or passages of the source.

Legend:
[1] = system: 6 Hz psychomotor seizure model; test: 6 Hz psychomotor seizure model; format: in vivo, mice; settings: for ED50: Mus musculus; for efficacy in 6 Hz psychomotor seizure model: oral administration at a dose of 100 mg/kg; for 6 Hz (Positive number/tested number): dose 100 mg/kg, 30 minutes or 1 hour after administration
Protocol: Test 4: Test of 6 Hz Psychomotor Seizure Model
Similar to Tests 1 and 2, Test 4 evaluates the anticonvulsant action of medicaments. However, unlike Tests 1 and 2, the animal model used herein represents clinical phenotypes of seizures resistant to existing antiepileptic drugs. […] After 30 minutes or an hour of administration, their corneas were electrically stimulated (6 Hz, 32 mA, 3 seconds) to induce symptoms of myoclonus in their forelimbs, Straub tail, and immobility. […] To the control mice, 0.5% tragacanth solution, 0.5% methylcellulose solution, or olive oil was administered.

[2] = system: maximum electroshock seizure (MES) model; test: Maximum electroshock seizure (MES) model test; format: in vivo, mice; settings: for responders at 50 mg/kg / responders at 100 mg/kg: Mus musculus, po, 1 h; for anticonvulsant action in maximum electroshock seizure (MES) model test: mice, oral 50 or 100 mg/kg, 1 hour after administration
Procedure, shortened: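 Tonic hind-limb extension was elicited by corneal electroshock (60 Hz, 25 mA, 0.2 s) 1 h after oral dosing. Test compounds were given at 50 or 100 mg/kg to groups of 3 male Slc: ddY mice (20-30 g), vehicle controls receiving 0.5% tragacanth or 0.5% methylcellulose solution.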

[3] = system: subcutaneously pentetrazol-injected model (scPTZ); test: Subcutaneously pentetrazol-injected model (scPTZ) test; format: in vivo, mice; settings: pentetrazol 85 mg/kg s.c. after 1 hour; for responders at 50 mg/kg / responders at 100 mg/kg: Mus musculus, po, 1 h, read-out: scPTZ (positive number/tested number) (converted); for responders at 50 mg/kg / responders at 100 mg/kg / scPTZ (positive number/tested number): Slc: ddY male mice, 3 per group, observed 30 minutes for clonic convulsion; for anticonvulsant action in subcutaneously pentetrazol-injected model (scPTZ) test: mice, oral 50 or 100 mg/kg
Procedure, shortened: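 Pentetrazol (85 mg/kg, s.c.) was injected one hour after oral test compound at 50 or 100 mg/kg in groups of three male Slc:ddY mice weighing 20-30 g; vehicle controls got 0.5% tragacanth or 0.5% methylcellulose.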

Slc: ddY male mice = test: Rotarod performance test (motor disturbance); format: in vivo; settings: 1 hour after administration, 10 mice
Protocol: Test 5: Rotarod Performance Test
Test 5 evaluates whether motor disturbance is caused by medicaments. On the day before the test, Slc: ddY male mice (body weight 20-30 g) were trained so that they could walk on a rotarod apparatus for 3 minutes without falling, wherein a cylinder of 4 cm diameter is rotated with a speed of 13 rotations per minute. Test compounds were orally administered to a group consisting of 10 mice. […] When the mice fell down within 100 seconds because of disturbed motor coordination, such mice were counted as positive. To the control mice, 0.5% methylcellulose solution was administered.

amygdala-kindling model = test: Amygdala-kindling model in rats; format: in vivo
Text: Test 3: Test with Amygdala-Kindling Model in Rats
Test 3 evaluates the anticonvulsant action of medicaments in rats, besides mice in Tests 1 and 2. Animal model (kindling model) used herein is a very similar model to clinical findings of focal onset seizures (i.e. simple partial seizure, complex partial seizure, and secondarily generalized tonic-clonic seizure), which is known to provide excellent clinical prediction. A chronic electrode was implanted in the cortex (frontal and posterior regions) and the amygdala of Slc: Wistar male rats (body weight 250-300 g). One week after the above operation, electrical stimulation (50 Hz, 400 μA, 1 second) into the amygdala was conducted once a day for about two weeks. The stimulation condition was determined according to the method of Loscher et al. [Epilepsy Res., 40: 63-77 (2000)]. The stimulation was continued until the seizure stage 5 in the seizure severity stages according to the method of Racine et al. [Motor seizure. Electroenceph. Clin. Neurophysiol., 32:281-294 (1972)] was observed 10 consecutive times. Kindling model was thus completed. Then, test compounds (100 mg/kg) were orally administered to this model. After an hour of administration, the rats were evaluated based on three parameters, i.e., a threshold stimulus current to induce seizure (i.e. seizure threshold), the duration of afterdischrage observed on an electroencephalogram, and seizure severity (stage scores 1-5). The results of the seizure threshold and the afterdischarge duration were shown as average percentage of change from the pretreatment value obtained before the administration of each test compound. To the control rats, 0.5% tragacanth solution was administered. Minus means decreased or shortened.

[4] = 6 Hz psychomotor seizure model, mice, oral, read-out: ED50
[5] = 50 mg/kg oral, Slc: ddY male mice, 3 per group, electrical stimulation 1 hour after administration, inhibition of hind limb extension, read-out: MES (positive number/tested number) (converted)
[6] = 100 mg/kg oral, Slc: ddY male mice, 3 per group, electrical stimulation 1 hour after administration, inhibition of hind limb extension, read-out: MES (positive number/tested number) (converted)

| Compound | ED50 [1, 4] | 6 Hz (Positive number/tested number) ([1]; mice, oral) | responders at 50 mg/kg [2, 5] | responders at 100 mg/kg [2, 6] | anticonvulsant action in maximum electroshock seizure (MES) model test [2] | responders at 50 mg/kg ([3]; 50 mg/kg oral) | responders at 100 mg/kg ([3]; 100 mg/kg oral) | anticonvulsant action in subcutaneously pentetrazol-injected model (scPTZ) test [3] | The rate of mice which fell within 100 seconds (%) (Slc: ddY male mice; 100 mg/kg oral) | The rate of mice which fell within 100 seconds (%) (Slc: ddY male mice; 200 mg/kg oral) | The rate of mice which fell within 100 seconds (%) (Slc: ddY male mice; 300 mg/kg oral) | The rate of mice which fell within 100 seconds (%) (Slc: ddY male mice; 400 mg/kg oral) | other results |
| --- | --- | --- | --- | --- | --- | --- | --- | --- | --- | --- | --- | --- | --- |
| NC(=O)Cc1ccccc1-c1cccc(F)c1 [Example 25, 2-(3′-fluorobiphenyl-2-yl)acetamide] | 61.9 mg/kg | 10/10/100 | 100% | 100% | anticonvulsant action was observed | 100% | 100% | anticonvulsant action was observed | 0% | 10% | 60% | 90% | efficacy in 6 Hz psychomotor seizure model ([1]; mice): potent efficacy; Seizure threshold (uA) Δ % change (amygdala-kindling model; 100 mg/kg oral, 1 hour after administration, average percentage of change from pretreatment value): 69.4%; Afterdischarge duration (sec) Δ % change (amygdala-kindling model; 100 mg/kg oral, 1 hour after administration, change from pretreatment value, minus means shortened): −100%; Seizure severity score (amygdala-kindling model; 100 mg/kg oral, 1 hour after administration, stage scores 1-5): 0.0; efficacy against the amygdala-kindling model (amygdala-kindling model; oral administration at a dose of 100 mg/kg): potent efficacy |
| NC(=O)Cc1ccccc1-c1cc(Cl)cc(Cl)c1 [Example 71, 2-(3′,5′-dichlorobiphenyl-2-yl)acetamide] | 82.8 mg/kg | 7/10/100 | 66.7% | 100% | anticonvulsant action was observed | 66.7% | 66.7% | anticonvulsant action was observed | 0% | 20% | 30% | 70% | – |
| NC(=O)C(F)c1ccccc1-c1ccccc1 (single isomer, unassigned) [Example 209, 2-(Biphenyl-2-yl)-2-fluoroacetamide] | – | 6/10/100 | – | – | anticonvulsant action was observed | – | – | anticonvulsant action was observed | – | – | – | – | ED50 ([1]; po): 109 mg/kg; MES (positive number/tested number) ([2]; 50 mg/kg oral, Slc: ddY male mice, 3 per group, electrical stimulation 1 hour after administration, inhibition of hind limb extension): 3/3; responders at 100 mg/kg ([2]; read-out: MES (positive number/tested number), 100 mg/kg oral, Slc: ddY male mice, 3 per group, electrical stimulation 1 hour after administration, inhibition of hind limb extension): 100%; scPTZ (positive number/tested number) ([3]; 50 mg/kg oral): 2/3; scPTZ (positive number/tested number) ([3]; 100 mg/kg oral): 2/3 |
| NC(=O)[C@H](O)c1ccccc1-c1ccccc1 (single isomer, unassigned) [Example 207, 2-(Biphenyl-2-yl)-2R-hydroxyacetamide] | 86.6 mg/kg | 7/10/100 | 66.7% | 100% | anticonvulsant action was observed | 66.7% | 66.7% | anticonvulsant action was observed | – | – | – | – | efficacy in 6 Hz psychomotor seizure model ([1]; mice): potent efficacy |
| NC(=O)Cc1ccccc1-c1ccccc1 [Example 50, 2-(biphenyl-2-yl)acetamide] | – | 3/5/100 | 66.7% | 100% | – | – | 33.3% | – | – | – | – | – | – |
| NC(=O)Cc1ccccc1-c1cccc(Cl)c1 [Example 13, 2-(3′-chlorobiphenyl-2-yl)acetamide] | – | 2/10/100 | 66.7% | 100% | anticonvulsant action was observed | 100% | 66.7% | anticonvulsant action was observed | – | – | – | – | – |
| NC(=O)Cc1cc(F)ccc1-c1ccccc1F [Example 46, 2-(2′,4-difluorobiphenyl-2-yl)acetamide] | 120 mg/kg | 5/10/100 | 66.7% | 100% | – | 0% | 100% | – | 20% | 20% | 60% | 90% | – |
| NC(=O)C(O)c1ccccc1-c1cccc(F)c1 (stereo not drawn) [Example 178, 2-(3′-fluorobiphenyl-2-yl)-2-hydroxyacetamide] | 117 mg/kg | 5/10/100 | 66.7% | 100% | anticonvulsant action was observed | 100% | 100% | anticonvulsant action was observed | – | – | – | – | – |
